According to patent publication US20250230244A1, “METHODS AND COMPOSITIONS COMPRISING B7-H3 BINDING POLYPETIDES” (BOARD OF REGENTS, THE UNIVERSITY OF TEXAS SYSTEM, priority 2021, published 2025):

How the values were obtained:
[1] = tested on: AML cell lines (OCI-AML3, MV4-11, and U937); experiment: NK cell ADCC, annexin V binding, Incucyte, AML cell lines; format: cell-based, human
Procedure: For live-cell apoptosis analysis, the inventors stained OCI-AML3, MV4-11, U937, and primary cells with CytoLight Red (#4482; Essen BioScience). […] Time-lapse fluorescence imaging was performed using an Incucyte live-cell imaging system (Essen BioScience) to assess apoptosis induction every 1 hour for 20-48 hours. The apoptosis in leukemic cells was measured by green and red overlap counts.
Rituximab is a chimeric anti-CD20 antibody that was used as a non-specific control antibody. NK cell-induced apoptosis was measured by annexin V binding assay using the Incucyte live-cell imaging system. […] Representative images of OCI-AML3 cells undergoing apoptosis at different time points in different treatment conditions are shown in FIG. 12A.

[2] = tested on: BC cell lines (MCF7 and HCC38); experiment: NK cell-mediated ADCC in breast cancer cell lines; format: cell-based, human; settings: 10 μg/mL
From the text: Rituximab is a chimeric anti-CD20 antibody that was used as a nonspecific control antibody.

## rituximab [reference compound]
[1]; 1, 5, and 10 μg/mL, with NK cells, 8:1 ratio
  apoptosis of leukemic cells (NK cell ADCC): did not show significant outcomes
[1]; antibody alone
  killing of leukemic cells, antibody alone, at 28 and 22 hours: no effect on killing leukemic cells
[2]; with NK cells, 15:1 NK-to-target cell ratio
  apoptosis in BC cells (ADCC): did not show significant outcomes
[2]; without NK cells
  killing of BC cells, antibody alone, after 10 hours: did not affect the killing of BC cells
